From paper PMC5218480 (PLoS ONE, 2017)

Test system: MV-4-11 cells
Assay: Gene expression microarray analysis (Affymetrix PrimeView) and GSEA
Type: cell-based, human
Design: RFU PODN (11730768_x_at) / Fold change /veh PODN (11730768_x_at) / RFU LINC00158 (11744669_a_at) / Fold change /veh LINC00158 (11744669_a_at) / RFU DUSP10 (11751237_a_at) / Fold change /veh DUSP10 (11751237_a_at) / RFU ID3 (11757404_x_at) / Fold change /veh ID3 (11757404_x_at) / RFU PLEKHG5 (11737974_s_at) / Fold change /veh PLEKHG5 (11737974_s_at) / RFU LRRC4B (11730491_at) / Fold change /veh LRRC4B (11730491_at) / RFU GIMAP4 (11747438_a_at) / Fold change /veh GIMAP4 (11747438_a_at) / RFU KRT8 (11758183_x_at) / Fold change /veh KRT8 (11758183_x_at) / RFU CNN1 (11734310_a_at) / Fold change /veh CNN1 (11734310_a_at) / RFU VPS37D (11726825_at) / Fold change /veh VPS37D (11726825_at) / RFU C10orf10 (11716522_x_at) / Fold change /veh C10orf10 (11716522_x_at) / RFU KIR2DL2 /// KIR2DL4 /// KIR2DL5A /// KIR2DL5B /// KIR2DS1 /// KIR2DS2 /// KIR2DS3 /// KIR2DS4 /// KIR3DL3 /// KIR3DL3 /// KIR3DS1 (11738374_at) / Fold change /veh KIR2DL2 /// KIR2DL4 /// KIR2DL5A /// KIR2DL5B /// KIR2DS1 /// KIR2DS2 /// KIR2DS3 /// KIR2DS4 /// KIR3DL3 /// KIR3DL3 /// KIR3DS1 (11738374_at) / RFU C1QL1 (11718748_at) / Fold change /veh C1QL1 (11718748_at) / RFU TMPRSS4 (11747572_a_at) / Fold change /veh TMPRSS4 (11747572_a_at) / RFU HAMP (11756126_x_at) / Fold change /veh HAMP (11756126_x_at) / RFU RNFT2 (11725882_a_at) / Fold change /veh RNFT2 (11725882_a_at) / RFU NR4A2 (11747474_a_at) / Fold change /veh NR4A2 (11747474_a_at) / RFU ABCC12 (11746883_a_at) / Fold change /veh ABCC12 (11746883_a_at) / RFU TMEM136 (11760407_x_at) / Fold change /veh TMEM136 (11760407_x_at) / RFU CLDN22 /// WWC2 (11732394_at) / Fold change /veh CLDN22 /// WWC2 (11732394_at) / RFU HLA-DPB1 (11760878_x_at) / Fold change /veh HLA-DPB1 (11760878_x_at) / RFU SPINT1 (11716480_a_at) / Fold change /veh SPINT1 (11716480_a_at) / RFU GAP43 (11754022_s_at) / Fold change /veh GAP43 (11754022_s_at) / RFU A4GNT (11735810_at) / Fold change /veh A4GNT (11735810_at) / RFU PRB3 (11715151_x_at) / Fold change /veh PRB3 (11715151_x_at) / RFU TUBB4B (11761932_at) / Fold change /veh TUBB4B (11761932_at) / RFU CAPN14 (11732068_a_at) / Fold change /veh CAPN14 (11732068_a_at) / RFU TMCC2 (11721928_a_at) / Fold change /veh TMCC2 (11721928_a_at) / RFU IRGQ (11745062_a_at) / Fold change /veh IRGQ (11745062_a_at) / RFU FAM174B (11720279_a_at) / Fold change /veh FAM174B (11720279_a_at) / RFU TMPRSS4 (11748680_a_at) / Fold change /veh TMPRSS4 (11748680_a_at) / RFU FAM212B (11763350_a_at) / Fold change /veh FAM212B (11763350_a_at) / RFU PLEKHG5 (11743358_a_at) / Fold change /veh PLEKHG5 (11743358_a_at) / RFU ZSCAN30 (11745921_a_at) / Fold change /veh ZSCAN30 (11745921_a_at) / RFU CMKLR1 (11741424_a_at) / Fold change /veh CMKLR1 (11741424_a_at) / RFU LOC101060620 /// MAPK8IP1 (11723275_at) / Fold change /veh LOC101060620 /// MAPK8IP1 (11723275_at) / RFU SPTSSB (11747773_x_at) / Fold change /veh SPTSSB (11747773_x_at) / RFU PRSS12 (11739890_at) / Fold change /veh PRSS12 (11739890_at) / RFU BIN1 (11741810_x_at) / Fold change /veh BIN1 (11741810_x_at) / RFU WNT11 (11732464_a_at) / Fold change /veh WNT11 (11732464_a_at) / RFU C10orf10 (11716521_a_at) / Fold change /veh C10orf10 (11716521_a_at) / RFU C5orf56 (11738089_at) / Fold change /veh C5orf56 (11738089_at) / RFU CYB561 (11721691_x_at) / Fold change /veh CYB561 (11721691_x_at) / RFU ANKRD19P (11752326_a_at) / Fold change /veh ANKRD19P (11752326_a_at) / RFU OR2T12 /// OR2T33 /// OR2T8 (11738714_s_at) / Fold change /veh OR2T12 /// OR2T33 /// OR2T8 (11738714_s_at) / RFU VCAN (11748164_a_at) / Fold change /veh VCAN (11748164_a_at) / RFU JSRP1 (11732532_at) / Fold change /veh JSRP1 (11732532_at) / RFU KRTAP10-11 (11738290_x_at) / Fold change /veh KRTAP10-11 (11738290_x_at) / RFU MYO3A (11730013_a_at) / Fold change /veh MYO3A (11730013_a_at) / RFU EBF3 (11725865_a_at) / Fold change /veh EBF3 (11725865_a_at) / RFU CAMK2N1 (11719241_x_at) / Fold change /veh CAMK2N1 (11719241_x_at) / RFU C5orf56 (11738088_a_at) / Fold change /veh C5orf56 (11738088_a_at) / RFU OLFML3 (11715873_a_at) / Fold change /veh OLFML3 (11715873_a_at) / RFU LOC100653217 /// NTM (11731650_a_at) / Fold change /veh LOC100653217 /// NTM (11731650_a_at) / RFU MAPK11 (11762145_a_at) / Fold change /veh MAPK11 (11762145_a_at) / RFU FIZ1 (11724087_x_at) / Fold change /veh FIZ1 (11724087_x_at) / RFU OASL (11726364_x_at) / Fold change /veh OASL (11726364_x_at) / RFU SOX15 (11748057_x_at) / Fold change /veh SOX15 (11748057_x_at) / RFU CD79A (11719716_a_at) / Fold change /veh CD79A (11719716_a_at) / RFU HIST1H1D (11736915_at) / Fold change /veh HIST1H1D (11736915_at) / RFU CASKIN2 (11723855_a_at) / Fold change /veh CASKIN2 (11723855_a_at) / RFU LOC730098 (11760151_x_at) / Fold change /veh LOC730098 (11760151_x_at) / RFU OR4N2 (11742367_at) / Fold change /veh OR4N2 (11742367_at) / RFU PRRT2 (11749266_a_at) / Fold change /veh PRRT2 (11749266_a_at) / RFU SNX32 (11753110_a_at) / Fold change /veh SNX32 (11753110_a_at) / RFU CDHR5 (11726645_a_at) / Fold change /veh CDHR5 (11726645_a_at) / RFU RCAN1 (11760418_a_at) / Fold change /veh RCAN1 (11760418_a_at) / RFU FAM167A (11723789_a_at) / Fold change /veh FAM167A (11723789_a_at) / RFU FAM26E (11764081_at) / Fold change /veh FAM26E (11764081_at) / RFU ISYNA1 (11749810_s_at) / Fold change /veh ISYNA1 (11749810_s_at) / RFU ACY1 (11761880_at) / Fold change /veh ACY1 (11761880_at) / RFU 11764098_at / Fold change /veh 11764098_at / RFU SAMD14 (11745864_x_at) / Fold change /veh SAMD14 (11745864_x_at) / RFU NPB (11741838_a_at) / Fold change /veh NPB (11741838_a_at) / RFU TMPRSS6 (11731388_a_at) / Fold change /veh TMPRSS6 (11731388_a_at) / RFU KRTAP10-2 (11738614_at) / Fold change /veh KRTAP10-2 (11738614_at) / RFU ARHGAP8 /// PRR5-ARHGAP8 (11727945_x_at) / Fold change /veh ARHGAP8 /// PRR5-ARHGAP8 (11727945_x_at) / RFU KRTAP5-7 /// NADSYN1 (11734609_at) / Fold change /veh KRTAP5-7 /// NADSYN1 (11734609_at) / RFU RASL12 (11751679_a_at) / Fold change /veh RASL12 (11751679_a_at) / RFU CDKN2B (11736163_a_at) / Fold change /veh CDKN2B (11736163_a_at) / RFU PRF1 (11729649_at) / Fold change /veh PRF1 (11729649_at) / RFU, ZNF638 /// ZNF638-IT1 / Fold change vs veh, ZNF638 /// ZNF638-IT1 / RFU, PANK3 / Fold change vs veh, PANK3 / RFU, SH3YL1 / Fold change vs veh, SH3YL1 / RFU, ZEB2 / Fold change vs veh, ZEB2 / RFU, NRIP1 / Fold change vs veh, NRIP1 / RFU, PTTG1IP / Fold change vs veh, PTTG1IP / RFU, CAPN2 / Fold change vs veh, CAPN2 / RFU, MED14 / Fold change vs veh, MED14 / RFU, SNORA58 / Fold change vs veh, SNORA58 / RFU, C1orf63 / Fold change vs veh, C1orf63 / RFU, LRRFIP1 / Fold change vs veh, LRRFIP1 / RFU, NDUFAF7 / Fold change vs veh, NDUFAF7 / RFU, SLC12A2 / Fold change vs veh, SLC12A2 / RFU, IBTK / Fold change vs veh, IBTK / RFU, ESF1 / Fold change vs veh, ESF1 / Fold change vs veh, TMEM50B / RFU, TAOK1 / Fold change vs veh, TAOK1 / RFU, ACBD3 / Fold change vs veh, ACBD3 / RFU, TMA16 / Fold change vs veh, TMA16 / RFU, RWDD3 / Fold change vs veh, RWDD3 / RFU, BCAT1 / Fold change vs veh, BCAT1 / RFU, EDEM3 / Fold change vs veh, EDEM3 / RFU, TMEM33 / Fold change vs veh, TMEM33 / RFU, WDR75 / Fold change vs veh, WDR75 / RFU, AHCTF1 / Fold change vs veh, AHCTF1 / RFU, TFRC / Fold change vs veh, TFRC / RFU, ZDHHC17 / Fold change vs veh, ZDHHC17 / RFU, NOM1 / Fold change vs veh, NOM1 / RFU, ARL8B / Fold change vs veh, ARL8B / RFU, ZBTB11 / Fold change vs veh, ZBTB11 / RFU, TAMM41 / Fold change vs veh, TAMM41 / RFU, KIAA1704 /// LOC100996395 / Fold change vs veh, KIAA1704 /// LOC100996395 / RFU, ING1 / Fold change vs veh, ING1 / RFU, TRMT61B / Fold change vs veh, TRMT61B / RFU, FUBP3 / Fold change vs veh, FUBP3 / RFU, TP53 / Fold change vs veh, TP53 / RFU, TNKS2 / Fold change vs veh, TNKS2 / RFU, ZFP14 / Fold change vs veh, ZFP14 / RFU, ACTR2 / Fold change vs veh, ACTR2 / RFU, PPP3R1 / Fold change vs veh, PPP3R1 / RFU, PIK3R1 / Fold change vs veh, PIK3R1 / RFU, HNRNPA1 / Fold change vs veh, HNRNPA1 / RFU, RNF170 / Fold change vs veh, RNF170 / RFU, ZNF28 / Fold change vs veh, ZNF28 / RFU, RNGTT / Fold change vs veh, RNGTT / RFU, OGT / Fold change vs veh, OGT / RFU, BRD1 / Fold change vs veh, BRD1 / RFU, MARS / Fold change vs veh, MARS / RFU, ZNF655 / Fold change vs veh, ZNF655 / RFU, FAHD1 / Fold change vs veh, FAHD1 / RFU, BDP1 / Fold change vs veh, BDP1 / RFU, LRRCC1 / Fold change vs veh, LRRCC1 / RFU, ARID1A / Fold change vs veh, ARID1A / RFU, ZNF146 / Fold change vs veh, ZNF146 / RFU, ZNF330 / Fold change vs veh, ZNF330 / RFU, GPN3 / Fold change vs veh, GPN3 / RFU, C9orf123 / Fold change vs veh, C9orf123 / RFU, N4BP2L2 / Fold change vs veh, N4BP2L2 / RFU, ARFIP1 / Fold change vs veh, ARFIP1 / RFU, FAM179B / Fold change vs veh, FAM179B / RFU, BCL10 / Fold change vs veh, BCL10 / RFU, UHRF1BP1L / Fold change vs veh, UHRF1BP1L / RFU, BET1 / Fold change vs veh, BET1 / RFU, CNOT2 / Fold change vs veh, CNOT2 / RFU, ZNF268 / Fold change vs veh, ZNF268 / Fold change vs veh, ZNF507 / RFU, DGCR2 / Fold change vs veh, DGCR2 / RFU, WDSUB1 / Fold change vs veh, WDSUB1 / Fold change vs veh, HSP90B1 /// MIR3652 / RFU, ADSS / Fold change vs veh, ADSS / RFU, GK / Fold change vs veh, GK / RFU, ZNF148 / Fold change vs veh, ZNF148 / RFU, TAF9 / Fold change vs veh, TAF9 / RFU, SLC1A5 / Fold change vs veh, SLC1A5 / RFU, SLMO2 / Fold change vs veh, SLMO2 / RFU, ABCC4 / Fold change vs veh, ABCC4 / RFU, LOC101060439 /// RAP1B / Fold change vs veh, LOC101060439 /// RAP1B / RFU, RFX7 / Fold change vs veh, RFX7 / RFU, GTPBP10 / Fold change vs veh, GTPBP10 / RFU, CNEP1R1 / Fold change vs veh, CNEP1R1 / RFU, BIVM-ERCC5 /// ERCC5 / Fold change vs veh, BIVM-ERCC5 /// ERCC5 / RFU, ILF3 / Fold change vs veh, ILF3 / RFU 11762660_at / Fold change /veh 11762660_at / RFU VCAN (11757783_s_at) / Fold change /veh VCAN (11757783_s_at) / RFU DDX43 (11728927_at) / Fold change /veh DDX43 (11728927_at) / RFU KRT8 (11758188_x_at) / Fold change /veh KRT8 (11758188_x_at) / RFU NKD1 (11759106_at) / Fold change /veh NKD1 (11759106_at) / RFU SRD5A1 (11742802_a_at) / Fold change /veh SRD5A1 (11742802_a_at) / RFU TPSAB1 /// TPSB2 (11721975_s_at) / Fold change /veh TPSAB1 /// TPSB2 (11721975_s_at) / RFU GSTM3 (11746129_a_at) / Fold change /veh GSTM3 (11746129_a_at) / RFU IL23R (11737362_x_at) / Fold change /veh IL23R (11737362_x_at) / RFU TMEM51 (11727254_a_at) / Fold change /veh TMEM51 (11727254_a_at) / RFU PIWIL2 (11732686_x_at) / Fold change /veh PIWIL2 (11732686_x_at) / RFU ORM1 (11744905_x_at) / Fold change /veh ORM1 (11744905_x_at) / RFU CCDC152 (11743942_at) / Fold change /veh CCDC152 (11743942_at) / RFU ECM1 (11717891_a_at) / Fold change /veh ECM1 (11717891_a_at) / RFU IL23R (11748794_a_at) / Fold change /veh IL23R (11748794_a_at) / RFU TNFAIP8L3 (11732012_x_at) / Fold change /veh TNFAIP8L3 (11732012_x_at) / RFU MBOAT4 (11741988_at) / Fold change /veh MBOAT4 (11741988_at) / RFU 11764193_at / Fold change /veh 11764193_at / RFU TMEM53 (11763286_at) / Fold change /veh TMEM53 (11763286_at) / RFU MAGEB2 (11727129_at) / Fold change /veh MAGEB2 (11727129_at) / RFU TMEM200A (11744735_a_at) / Fold change /veh TMEM200A (11744735_a_at) / RFU CCDC152 (11751479_a_at) / Fold change /veh CCDC152 (11751479_a_at) / RFU FAM211A (11726209_a_at) / Fold change /veh FAM211A (11726209_a_at) / RFU RGS16 (11746705_a_at) / Fold change /veh RGS16 (11746705_a_at) / RFU VCAN (11755009_s_at) / Fold change /veh VCAN (11755009_s_at) / RFU RHOB (11743442_s_at) / Fold change /veh RHOB (11743442_s_at) / RFU RGS16 (11720943_a_at) / Fold change /veh RGS16 (11720943_a_at) / RFU RGS16 (11720944_at) / Fold change /veh RGS16 (11720944_at) / RFU, VPS4B / Fold change vs veh, VPS4B / RFU, CREB1 / Fold change vs veh, CREB1 / RFU, DNAJC13 / Fold change vs veh, DNAJC13 / RFU, GNAQ / Fold change vs veh, GNAQ / RFU, CDK5R1 / Fold change vs veh, CDK5R1 / RFU, ZRANB3 / Fold change vs veh, ZRANB3 / RFU, CUL4A / Fold change vs veh, CUL4A / RFU, CCNY / Fold change vs veh, CCNY / RFU, UFL1 / Fold change vs veh, UFL1 / RFU, COG3 / Fold change vs veh, COG3 / RFU, DIAPH2 / Fold change vs veh, DIAPH2 / RFU, SKA2 / Fold change vs veh, SKA2 / RFU, AFF3 / Fold change vs veh, AFF3 / RFU, LMF1 / Fold change vs veh, LMF1 / RFU, IPO11 / Fold change vs veh, IPO11 / RFU, DFFB / Fold change vs veh, DFFB / RFU, FOXP1 / Fold change vs veh, FOXP1 / RFU, CARD8 / Fold change vs veh, CARD8 / RFU, STRN3 / Fold change vs veh, STRN3 / RFU, ADK / Fold change vs veh, ADK / RFU, RASSF2 / Fold change vs veh, RASSF2 / RFU, WIPF1 / Fold change vs veh, WIPF1 / RFU, LARP1B / Fold change vs veh, LARP1B / RFU, RASA1 / Fold change vs veh, RASA1 / RFU, RB1 / Fold change vs veh, RB1 / RFU, PPFIA1 / Fold change vs veh, PPFIA1 / RFU, MAT2A / Fold change vs veh, MAT2A / RFU, CCT5 / Fold change vs veh, CCT5 / RFU, WDR92 / Fold change vs veh, WDR92 / RFU, CUX1 / Fold change vs veh, CUX1 / RFU, TTC7A / Fold change vs veh, TTC7A / RFU, TMEM135 / Fold change vs veh, TMEM135 / RFU, DEPTOR / Fold change vs veh, DEPTOR / RFU, CPM / Fold change vs veh, CPM / RFU, DNAJB6 / Fold change vs veh, DNAJB6 / RFU, CACNA2D3 / Fold change vs veh, CACNA2D3 / RFU, DTX4 / Fold change vs veh, DTX4 / RFU, TFCP2 / Fold change vs veh, TFCP2 / RFU, GMCL1 /// GMCL1P1 / Fold change vs veh, GMCL1 /// GMCL1P1 / RFU, AEBP2 / Fold change vs veh, AEBP2 / RFU, SNHG1 /// SNORD22 /// SNORD25 /// SNORD26 /// SNORD27 /// SNORD28 /// SNORD29 /// SNORD31 / Fold change vs veh, SNHG1 /// SNORD22 /// SNORD25 /// SNORD26 /// SNORD27 /// SNORD28 /// SNORD29 /// SNORD31 / Fold change (Aza/veh), C12orf56 (ProbeSet 11735607_a_at) / Fold change (ACY-1035/veh), C12orf56 (ProbeSet 11735607_a_at) / Fold change (Aza/veh), FGFR1OP (ProbeSet 11751329_s_at) / Fold change (ACY-1035/veh), FGFR1OP (ProbeSet 11751329_s_at) / Fold change (Aza/veh), VPS36 (ProbeSet 11739960_a_at) / Fold change (ACY-1035/veh), VPS36 (ProbeSet 11739960_a_at) / RFU SYPL1 (11715823_x_at) / Fold change /veh SYPL1 (11715823_x_at) / RFU IGFBP7 (11715501_s_at) / Fold change /veh IGFBP7 (11715501_s_at) / RFU REEP3 (11722064_at) / Fold change /veh REEP3 (11722064_at) / RFU IGLL1 (11728026_x_at) / Fold change /veh IGLL1 (11728026_x_at): dose or concentration left out as unconfirmed
Conditions: ProbeSet 11741123_x_at; LIST D

Nc1ccc(-c2cccs2)cc1NC(=O)c1ccc2c(c1)cc(C1CC1)n2CCN1CCOCC1 [ACY-1035]
RFU, ADK: 253.83 RFU
